Data on two molecules can be found in paper PMC5896373 (Molecular Pharmacology, 2018).

The structures appear in SMILES notation.

Assay in all cases: Two-electrode voltage clamp of ATP-evoked currents in Xenopus oocytes
What all share (assay type): cell-based
(In two-electrode clamp one electrode senses voltage and the other passes current.)

Test [1] concerns the target T1, chimeric P2X7/1 receptor 164–168 (Homo sapiens, UniProt Q99572, A166G/I21V/M24R/N16P/N25R/Q22R/R20V/S165F/S23N/T19I/V164I/Y26L).
T1 construct: expressed in transfected cells; host or cells: Xenopus laevis oocytes (cRNA injection)
T1 sequence (Q99572 1-595 N16P/T19I/R20V/I21V/Q22R/S23N/M24R/N25R/Y26L/V164I/S165F/A166G): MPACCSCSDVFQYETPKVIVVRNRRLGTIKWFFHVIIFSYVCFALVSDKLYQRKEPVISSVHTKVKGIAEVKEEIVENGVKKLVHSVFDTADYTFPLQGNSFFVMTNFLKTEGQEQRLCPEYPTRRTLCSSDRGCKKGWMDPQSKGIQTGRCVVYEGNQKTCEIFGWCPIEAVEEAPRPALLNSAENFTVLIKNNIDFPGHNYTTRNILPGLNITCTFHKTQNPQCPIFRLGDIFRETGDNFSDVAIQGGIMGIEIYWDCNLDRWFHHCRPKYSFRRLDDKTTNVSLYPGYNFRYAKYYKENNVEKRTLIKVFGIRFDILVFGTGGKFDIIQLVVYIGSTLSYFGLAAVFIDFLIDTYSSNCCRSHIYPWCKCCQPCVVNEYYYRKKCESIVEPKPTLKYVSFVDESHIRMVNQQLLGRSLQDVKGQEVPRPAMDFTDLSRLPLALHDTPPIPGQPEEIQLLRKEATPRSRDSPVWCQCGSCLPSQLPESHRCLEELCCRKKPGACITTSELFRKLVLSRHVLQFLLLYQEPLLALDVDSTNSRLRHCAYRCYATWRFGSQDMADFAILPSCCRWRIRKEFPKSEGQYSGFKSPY
The settings on record: chimera 164–168; for IC50: inhibition of EC90 ATP response.
Description: Additional point mutants were made using the QuikChange mutagenesis kit (Stratagene California, La Jolla, CA). The production of the correct mutations and absence of coding errors was determined by DNA sequencing (Automated ABI Sequencing Service, University of Leicester, UK). cRNA was generated for the mutants and 50 nl (50 ng) was injected into manually defoliculated stage V Xenopus laevis oocytes using an Inject+Matic microinjector (J.A. Gabay, Inject+Matic, Geneva, Switzerland). Injected oocytes were stored at 16°C in ND96 buffer [in millimolar concentrations, NaCl 96, KCl 2, CaCl2 1.8, MgCl2 1, sodium pyruvate 5, and HEPES 5 (pH 7.6) supplemented with 50 μg/ml gentamycin and 50 μg/ml tetracycline]. Three to seven days postinjection two-electrode voltage clamp recordings were made from oocytes bathed in divalent-free ND96 buffer (in millimolar concentrations, NaCl 96, KCl 2, sodium pyruvate 5, HEPES 5, and 0.1 flufenamic acid, pH 7.6). Oocytes were voltage clamped at a holding potential of −60 mV with a GeneClamp500B amplifier (Molecular Devices).
(§1) Inhibition by the antagonists was expressed as the percentage of the peak current amplitude of an EC90 concentration of ATP recorded before the application of antagonist (ATP gave reproducible responses to ATP in the absence of antagonist). Inhibition curves were fitted with the Hill equation (variable slope) using GraphPad Prism 6 (GraphPad Software, San Diego, CA). […] Individual concentration-response curves were generated for individual experiments, and statistical analysis was carried out on the data generated. When shown in figures, the inhibition curves are fitted to the mean normalized data. […] Data are shown as mean ± S.E.M. In all cases n ≥ 3 for all data points.

Test [2] concerns the target T2, chimeric P2X7/1 receptor 279–285 (left flipper) (Homo sapiens, UniProt Q99572, DEL279-281/I21V/M24R/N16P/N25R/N284E/Q22R/R20V/S23N/T19I/T282Y/T283E/V285K/Y26L).
T2 construct: expressed in transfected cells; host or cells: Xenopus laevis oocytes (cRNA injection)
T2 sequence (Q99572 with tags, fused parts or gaps N16P/T19I/R20V/I21V/Q22R/S23N/M24R/N25R/Y26L/DEL279-281/T282Y/T283E/N284E/V285K): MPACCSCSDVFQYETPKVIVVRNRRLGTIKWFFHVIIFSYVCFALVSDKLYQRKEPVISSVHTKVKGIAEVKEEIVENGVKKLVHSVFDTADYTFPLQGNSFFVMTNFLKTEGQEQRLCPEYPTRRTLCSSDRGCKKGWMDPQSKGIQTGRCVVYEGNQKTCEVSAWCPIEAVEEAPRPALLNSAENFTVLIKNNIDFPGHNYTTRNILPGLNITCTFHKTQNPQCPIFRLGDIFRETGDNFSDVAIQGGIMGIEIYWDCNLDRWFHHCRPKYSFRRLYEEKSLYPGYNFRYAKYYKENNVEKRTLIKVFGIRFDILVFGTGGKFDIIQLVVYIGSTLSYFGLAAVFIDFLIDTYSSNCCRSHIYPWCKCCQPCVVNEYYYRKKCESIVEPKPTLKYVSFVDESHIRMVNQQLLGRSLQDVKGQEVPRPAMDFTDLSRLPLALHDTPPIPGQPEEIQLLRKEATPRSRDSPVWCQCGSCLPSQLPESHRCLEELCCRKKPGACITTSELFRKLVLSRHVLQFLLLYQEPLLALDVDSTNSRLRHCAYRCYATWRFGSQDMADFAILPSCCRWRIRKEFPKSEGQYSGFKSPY
The settings on record: chimera 279–285; for IC50: inhibition of EC90 ATP response.
Description: The production of the correct mutations and absence of coding errors was determined by DNA sequencing (Automated ABI Sequencing Service, University of Leicester, UK). cRNA was generated for the mutants and 50 nl (50 ng) was injected into manually defoliculated stage V Xenopus laevis oocytes using an Inject+Matic microinjector (J.A. Gabay, Inject+Matic, Geneva, Switzerland). Injected oocytes were stored at 16°C in ND96 buffer [in millimolar concentrations, NaCl 96, KCl 2, CaCl2 1.8, MgCl2 1, sodium pyruvate 5, and HEPES 5 (pH 7.6) supplemented with 50 μg/ml gentamycin and 50 μg/ml tetracycline]. Three to seven days postinjection two-electrode voltage clamp recordings were made from oocytes bathed in divalent-free ND96 buffer (in millimolar concentrations, NaCl 96, KCl 2, sodium pyruvate 5, HEPES 5, and 0.1 flufenamic acid, pH 7.6). Oocytes were voltage clamped at a holding potential of −60 mV with a GeneClamp500B amplifier (Molecular Devices).
(§2) Inhibition by the antagonists was expressed as the percentage of the peak current amplitude of an EC90 concentration of ATP recorded before the application of antagonist (ATP gave reproducible responses to ATP in the absence of antagonist). Inhibition curves were fitted with the Hill equation (variable slope) using GraphPad Prism 6 (GraphPad Software, San Diego, CA). […] Individual concentration-response curves were generated for individual experiments, and statistical analysis was carried out on the data generated. […] Data are shown as mean ± S.E.M. In all cases n ≥ 3 for all data points.

The next test addresses T3, P2X7R point mutant K306C (Homo sapiens, UniProt Q99572, I21V/K306C/M24R/N16P/N25R/Q22R/R20V/S23N/T19I/Y26L).
T3 construct: expressed in transfected cells; host or cells: Xenopus laevis oocytes (cRNA injection)
The settings on record: EC90 ATP, mean ± S.E.M.

Another test addresses T4, P2X7R mutant Insert G99 (Homo sapiens, UniProt Q99572, I21V/INS99D/M24R/N16P/N25R/Q22R/R20V/S23N/T19I/Y26L).
T4 construct: expressed in transfected cells; host or cells: Xenopus laevis oocytes (cRNA injection)
T4 sequence (Q99572 with tags, fused parts or gaps N16P/T19I/R20V/I21V/Q22R/S23N/M24R/N25R/Y26L/INS99D): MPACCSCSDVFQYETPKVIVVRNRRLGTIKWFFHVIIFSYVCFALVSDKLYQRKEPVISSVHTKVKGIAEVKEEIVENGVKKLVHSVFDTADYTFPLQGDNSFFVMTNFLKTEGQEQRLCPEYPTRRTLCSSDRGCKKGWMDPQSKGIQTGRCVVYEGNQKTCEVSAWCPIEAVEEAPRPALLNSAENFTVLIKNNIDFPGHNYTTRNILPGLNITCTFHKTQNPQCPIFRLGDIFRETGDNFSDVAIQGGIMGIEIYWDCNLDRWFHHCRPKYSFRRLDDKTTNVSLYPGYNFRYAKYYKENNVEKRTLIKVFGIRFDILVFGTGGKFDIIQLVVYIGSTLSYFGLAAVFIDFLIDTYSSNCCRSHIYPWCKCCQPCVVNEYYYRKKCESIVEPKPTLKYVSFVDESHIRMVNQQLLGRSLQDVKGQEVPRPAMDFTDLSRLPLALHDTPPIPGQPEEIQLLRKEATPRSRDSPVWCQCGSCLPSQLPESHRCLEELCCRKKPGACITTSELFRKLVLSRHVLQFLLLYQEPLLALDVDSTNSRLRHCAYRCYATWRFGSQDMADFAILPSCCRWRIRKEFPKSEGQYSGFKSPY
The settings on record: EC90 ATP, mean ± S.E.M.

The next test has as its target T5, P2X7R point mutant Q116A (Homo sapiens, UniProt Q99572, I21V/M24R/N16P/N25R/Q116A/Q22R/R20V/S23N/T19I/Y26L).
T5 construct: expressed in transfected cells; host or cells: Xenopus laevis oocytes (cRNA injection)
The settings on record: EC90 ATP, mean ± S.E.M.

T5 sequence (Q99572 whole entry N16P/T19I/R20V/I21V/Q22R/S23N/M24R/N25R/Y26L/Q116A): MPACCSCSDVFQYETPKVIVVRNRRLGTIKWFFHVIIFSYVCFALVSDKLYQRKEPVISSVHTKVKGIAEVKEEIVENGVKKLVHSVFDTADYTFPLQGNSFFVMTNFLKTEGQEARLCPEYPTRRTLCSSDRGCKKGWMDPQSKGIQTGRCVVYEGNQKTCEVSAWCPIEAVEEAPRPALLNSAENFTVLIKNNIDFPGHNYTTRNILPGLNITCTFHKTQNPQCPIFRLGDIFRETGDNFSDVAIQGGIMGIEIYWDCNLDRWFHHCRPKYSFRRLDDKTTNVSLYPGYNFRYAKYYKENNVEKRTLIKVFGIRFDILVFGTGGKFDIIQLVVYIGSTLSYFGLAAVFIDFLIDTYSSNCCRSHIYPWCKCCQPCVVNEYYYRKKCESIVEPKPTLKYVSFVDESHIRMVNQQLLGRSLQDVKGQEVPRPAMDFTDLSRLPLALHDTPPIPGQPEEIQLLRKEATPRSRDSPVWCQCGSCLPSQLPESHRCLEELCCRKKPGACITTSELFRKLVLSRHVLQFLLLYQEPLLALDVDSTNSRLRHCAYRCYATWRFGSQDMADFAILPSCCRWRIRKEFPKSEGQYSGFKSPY
T3 sequence (Q99572 whole entry N16P/T19I/R20V/I21V/Q22R/S23N/M24R/N25R/Y26L/K306C): as the sequence (Q99572 whole entry N16P/T19I/R20V/I21V/Q22R/S23N/M24R/N25R/Y26L/Q116A) above, with A116Q, K306C counted along it
Description for P2X7R mutant Insert G99: (§3) Injected oocytes were stored at 16°C in ND96 buffer [in millimolar concentrations, NaCl 96, KCl 2, CaCl2 1.8, MgCl2 1, sodium pyruvate 5, and HEPES 5 (pH 7.6) supplemented with 50 μg/ml gentamycin and 50 μg/ml tetracycline]. Three to seven days postinjection two-electrode voltage clamp recordings were made from oocytes bathed in divalent-free ND96 buffer (in millimolar concentrations, NaCl 96, KCl 2, sodium pyruvate 5, HEPES 5, and 0.1 flufenamic acid, pH 7.6). Oocytes were voltage clamped at a holding potential of −60 mV with a GeneClamp500B amplifier (Molecular Devices).
as §1
Description for P2X7R point mutant K306C: as §3, §2
Description for P2X7R point mutant Q116A: as §3, §2

What is called IC50 is the concentration at which inhibition is half-maximal. In the case of `COc1ccc(CC(=O)NC(N=C(NC#N)Nc2cccc3ncccc23)C(C)(C)C)cc1OC` (stereo not drawn) [A740003, N-[1-[[(cyanoamino)(5-quinolinylamino)methylene]amino]-2,2-dimethylpropyl]-3,4-dimethoxybenzeneacetamide], the results for the “fold decrease in antagonist sensitivity relative to P2X7-2Nβ” value in test [1] and in test [2] were about 5 fold and about 9 fold, respectively. Also, the IC50 is 0.398 µM in test [1]; 0.631 µM in test [2]; 0.316 µM against P2X7R point mutant K306C; 1.58 µM on P2X7R mutant Insert G99; 0.316 µM at P2X7R point mutant Q116A.

In the case of `Cl.Clc1cccc(-c2nnnn2Cc2cccnc2)c1Cl.O` [A438079, 3-(5-(2,3-dichlorophenyl)-1H-tetrazol-1-yl)methyl pyridine hydrochloride hydrate], the IC50 is 10 µM in test [1]; 31.6 µM in test [2]; 1.58 µM on P2X7R point mutant K306C; 12.6 µM against P2X7R mutant Insert G99; 1.26 µM at P2X7R point mutant Q116A.
